Laboratory results as given in patent publication US9221834B2 (Merck Sharp & Dohme Corp., priority 2010, dated 2015).
pIC50: −log10 of the molar value.

Target: T1, recombinant CETP (rCETP) (Homo sapiens, UniProt P11597)
T1 sequence (P11597 18-493): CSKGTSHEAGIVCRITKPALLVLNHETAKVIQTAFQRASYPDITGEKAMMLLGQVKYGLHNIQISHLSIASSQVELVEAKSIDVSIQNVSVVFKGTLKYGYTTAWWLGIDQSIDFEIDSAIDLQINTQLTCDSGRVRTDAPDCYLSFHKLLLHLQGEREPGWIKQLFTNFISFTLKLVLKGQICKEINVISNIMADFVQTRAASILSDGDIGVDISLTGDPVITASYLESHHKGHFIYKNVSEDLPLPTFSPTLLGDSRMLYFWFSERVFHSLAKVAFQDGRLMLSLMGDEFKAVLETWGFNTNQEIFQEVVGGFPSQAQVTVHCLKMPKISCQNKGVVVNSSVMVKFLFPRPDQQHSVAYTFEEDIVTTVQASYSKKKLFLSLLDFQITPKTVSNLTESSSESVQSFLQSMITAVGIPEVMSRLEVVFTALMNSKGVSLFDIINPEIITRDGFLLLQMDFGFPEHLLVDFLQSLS
Assay: RTA assay using recombinant CETP (2% RTA)
Format: biochemical
Details: RTA assay in 2% human serum; read-out: IC50
Protocol: In Vitro Radioactive Assays of CETP-Catalyzed CE and TG Transfer (RTA Assay)
Reagents and sources are: [3H] cholesteryl oleate (GE #TRK.886), [3H]
Both assays measure the transfer of [3H] cholesteryl oleate or [3H]triolein from exogenous LDL to HDL.
After a brief vortex, the solution is sonicated until clear and mixed with 20 mL of fresh human serum. The mixture is incubated overnight at 37° C. […] Once isolated the particles are dialyzed 3× in CETP buffer (50 mM Tris, pH 7.4, 100 mM NaCl, 1 mM EDTA). Human HDL is purchased from Intracel and used as the acceptor particles.
Transfer assays are performed in a 96-well v-bottom polypropylene plate. […] 1 μL of each test compound diluted in DMSO is added to 47 μL of assay cocktail per well and incubated at 37° C. for 1 hour. To initiate the transfer reaction, 2 μL radiolabeled LDL is added. After an additional 60 min of incubation at 37° C., the transfer action is terminated by precipitation of LDL with an equal volume of 20% W/V PEG 8000. The plates are centrifuged at 2000 rpm for 30 minutes at 4° C. A 40 μL aliquot of the HDL-containing supernatant is transferred to a Packard Optiplate with 200 μL of MicroScint 20. After mixing, plates are counted by liquid scintillation. Counts present in the supernatant for blanks (wells containing only HDL acceptor, CETP buffer and DMSO) are subtracted from those containing test compounds and used to correct for non-specific transfer.
Comparison of the counts of samples with inhibitors to an uninhibited (DMSO only) positive control yield a percent inhibition. A plot of percent inhibition vs. log of inhibitor concentration, fit to a Sigmoidal 4 parameter equation is used to calculate IC50.

Compound	pIC50
COc1ccc([C@H]2CC[C@H](C(=O)O)CC2)cc1-c1ccc(N2CCC2)nc1CN1C(=O)O[C@H](c2cc(C(F)(F)F)cc(C(F)(F)F)c2)[C@@H]1C [Example 73]	8.10
C[C@H]1[C@@H](c2cc(C(F)(F)F)cc(C(F)(F)F)c2)OC(=O)N1Cc1nc(N2CCC2)ccc1-c1cc(CCC(=O)O)ccc1Cl [Example 74]	8.05
COc1ccc([C@H]2C[C@@H]2C(=O)O)cc1-c1ccc(N2CCC2)nc1CN1C(=O)O[C@H](c2cc(C(F)(F)F)cc(C(F)(F)F)c2)[C@@H]1C [Example 75]	8.05
COc1ccc(CC(=O)O)cc1-c1c(C)cc(N2CCC2)nc1CN1C(=O)O[C@H](c2cc(C(F)(F)F)cc(C(F)(F)F)c2)[C@@H]1C [Example 76]	7.85
COc1ccc(C(C)(C)CC(=O)O)cc1-c1ccc(N2CCC2)nc1CN1C(=O)O[C@H](c2cc(C(F)(F)F)cc(C(F)(F)F)c2)[C@@H]1C [Example 77]	7.82
COc1cc2c(cc1-c1ccc(N3CCC3)nc1CN1C(=O)O[C@H](c3cc(C(F)(F)F)cc(C(F)(F)F)c3)[C@@H]1C)C(CC(=O)O)CC2 (some centres unmarked) [Example 78]	7.74
COc1cc(F)c(CCC(=O)O)cc1-c1ccc(N2CCC2)nc1CN1C(=O)O[C@H](c2cc(C(F)(F)F)cc(C(F)(F)F)c2)[C@@H]1C [Example 79]	7.74
COc1ccc(CC(=O)O)cc1-c1ccc(N2CCC2)nc1CN1C(=O)O[C@H](c2cc(C(F)(F)F)cc(C(F)(F)F)c2)[C@@H]1C [Example 80]	7.44
COc1ccc([C@H]2CC[C@H](C(=O)O)CC2)cc1-c1ccc(N2CCC2)nc1CN1C(=O)O[C@H](c2ccc(F)c(F)c2)[C@@H]1C [Example 81]	6.79
COc1ccc(CCC(=O)O)cc1-c1ccc(N2CCC2)nc1CN1C(=O)O[C@H](c2cc(F)cc(F)c2)[C@@H]1C [Example 82]	6.32
COc1ccc([C@@H]2C[C@H]2C(=O)O)cc1-c1ccc(N2CCC2)nc1CN1C(=O)O[C@H](c2cc(F)cc(F)c2)[C@@H]1C [Example 83]	6.87
COc1ccc([C@H]2C[C@@H]2C(=O)O)cc1-c1ccc(N2CCC2)nc1CN1C(=O)O[C@H](c2cc(F)cc(F)c2)[C@@H]1C [Example 84]	7.14
COc1ccc([C@H]2CC[C@H](C(=O)O)CC2)cc1-c1ccc(N2CCC2)nc1CN1C(=O)O[C@H](c2cc(F)cc(F)c2)[C@@H]1C [Example 85]	7.08
COc1cc2c(cc1-c1ccc(N3CCC3)nc1CN1C(=O)O[C@H](c3cc(F)cc(F)c3)[C@@H]1C)[C@H](CC(=O)O)CC2 [Example 86]	6.38
COc1cc(F)c(-c2ccc(C(=O)O)cc2C)cc1-c1ccc(N2CCC2)nc1CN1C(=O)O[C@H](c2cc(F)cc(F)c2)[C@@H]1C [Example 87]	8.15
CCc1ccc([C@@H]2C[C@H]2C(=O)O)cc1-c1ccc(N2CCC2)nc1CN1C(=O)O[C@H](c2cc(C(F)(F)F)cc(C(F)(F)F)c2)[C@@H]1C [Example 88]	8.05
COc1ccc([C@H]2C[C@@H](C(=O)O)C2)cc1-c1ccc(N2CCC2)nc1CN1C(=O)O[C@H](c2cc(C(F)(F)F)cc(C(F)(F)F)c2)[C@@H]1C [Example 89]	7.54
COc1ccc([C@H]2C[C@H](C(=O)O)C2)cc1-c1ccc(N2CCC2)nc1CN1C(=O)O[C@H](c2cc(C(F)(F)F)cc(C(F)(F)F)c2)[C@@H]1C [Example 90]	8.22
COc1ccc([C@H]2C[C@@H](CC(=O)O)C2)cc1-c1ccc(N2CCC2)nc1CN1C(=O)O[C@H](c2cc(C(F)(F)F)cc(C(F)(F)F)c2)[C@@H]1C [Example 91]	8.00
COc1ccc([C@H]2C[C@H](CC(=O)O)C2)cc1-c1ccc(N2CCC2)nc1CN1C(=O)O[C@H](c2cc(C(F)(F)F)cc(C(F)(F)F)c2)[C@@H]1C [Example 92]	8.30
COc1ccc(-c2cc(C(=O)O)on2)cc1-c1ccc(N2CCC2)nc1CN1C(=O)O[C@H](c2cc(C(F)(F)F)cc(C(F)(F)F)c2)[C@@H]1C [Example 93]	7.74
COc1ccc(-c2nn(C)c(C(=O)O)c2C)cc1-c1ccc(N2CCC2)nc1CN1C(=O)O[C@H](c2cc(C(F)(F)F)cc(C(F)(F)F)c2)[C@@H]1C [Example 94]	7.92

Compound	pIC50
COc1ccc(-c2cnc(C(=O)O)cn2)cc1-c1ccc(N2CCC2)nc1CN1C(=O)O[C@H](c2cc(C(F)(F)F)cc(C(F)(F)F)c2)[C@@H]1C [Example 95]	7.47
COc1ccc([C@H]2C[C@@H](C(=O)O)C2)cc1-c1c(C)cc(N2CCC2)nc1CN1C(=O)O[C@H](c2cc(C(F)(F)F)cc(C(F)(F)F)c2)[C@@H]1C [Example 96]	8.10
COc1ccc([C@H]2C[C@H](C(=O)O)C2)cc1-c1c(C)cc(N2CCC2)nc1CN1C(=O)O[C@H](c2cc(C(F)(F)F)cc(C(F)(F)F)c2)[C@@H]1C [Example 97]	8.40
COc1ccc(CCC(=O)O)cc1-c1ccc(N2CCC2)nc1CN1C(=O)O[C@H](c2cc(F)c(F)c(F)c2)[C@@H]1C [Example 98]	6.65
COc1ccc([C@H]2CC[C@H](C(=O)O)CC2)cc1-c1ccc(N2CCC2)nc1CN1C(=O)O[C@H](c2cc(F)c(F)c(F)c2)[C@@H]1C [Example 101]	7.43
COc1cc(F)c(-c2ccc(C(=O)O)cc2C)cc1-c1ccc(N2CCC2)nc1CN1C(=O)O[C@H](c2cc(F)c(F)c(F)c2)[C@@H]1C [Example 102]	8.10
COc1cc(F)c([C@H]2C[C@@H](C(=O)O)C2)cc1-c1ccc(N2CCC2)nc1CN1C(=O)O[C@H](c2cc(C(F)(F)F)cc(C(F)(F)F)c2)[C@@H]1C [Example 103]	7.51
COc1cc(F)c([C@H]2C[C@H](C(=O)O)C2)cc1-c1ccc(N2CCC2)nc1CN1C(=O)O[C@H](c2cc(C(F)(F)F)cc(C(F)(F)F)c2)[C@@H]1C [Example 104]	8.40
COc1ccc(-c2ccc(C(=O)O)s2)cc1-c1ccc(N2CCC2)nc1CN1C(=O)O[C@H](c2cc(C(F)(F)F)cc(C(F)(F)F)c2)[C@@H]1C [Example 105]	7.29
COc1ccc(-c2sc(C(=O)O)cc2C)cc1-c1ccc(N2CCC2)nc1CN1C(=O)O[C@H](c2cc(C(F)(F)F)cc(C(F)(F)F)c2)[C@@H]1C [Example 106]	7.92
COc1ccc(-c2csc(C(=O)O)c2)cc1-c1ccc(N2CCC2)nc1CN1C(=O)O[C@H](c2cc(C(F)(F)F)cc(C(F)(F)F)c2)[C@@H]1C [Example 107]	7.14
COc1ccc(-c2csc(C(=O)O)c2C)cc1-c1ccc(N2CCC2)nc1CN1C(=O)O[C@H](c2cc(C(F)(F)F)cc(C(F)(F)F)c2)[C@@H]1C [Example 108]	8.30
COc1ccc(-c2cc(C(=O)O)sc2C)cc1-c1ccc(N2CCC2)nc1CN1C(=O)O[C@H](c2cc(C(F)(F)F)cc(C(F)(F)F)c2)[C@@H]1C [Example 109]	8.05
COc1ccc(-c2csc(C(=O)O)c2OC)cc1-c1ccc(N2CCC2)nc1CN1C(=O)O[C@H](c2cc(C(F)(F)F)cc(C(F)(F)F)c2)[C@@H]1C [Example 110]	7.36
COc1ccc(-c2sc(C(=O)O)c(C)c2C)cc1-c1ccc(N2CCC2)nc1CN1C(=O)O[C@H](c2cc(C(F)(F)F)cc(C(F)(F)F)c2)[C@@H]1C [Example 111]	8.30
COc1ccc(-c2ccc(C(=O)O)o2)cc1-c1ccc(N2CCC2)nc1CN1C(=O)O[C@H](c2cc(C(F)(F)F)cc(C(F)(F)F)c2)[C@@H]1C [Example 112]	6.74
COc1ccc(-c2cc(C(=O)O)co2)cc1-c1ccc(N2CCC2)nc1CN1C(=O)O[C@H](c2cc(C(F)(F)F)cc(C(F)(F)F)c2)[C@@H]1C [Example 113]	7.54
COc1ccc(-c2ncc(C(=O)O)s2)cc1-c1ccc(N2CCC2)nc1CN1C(=O)O[C@H](c2cc(C(F)(F)F)cc(C(F)(F)F)c2)[C@@H]1C [Example 114]	7.30
COc1ccc(-c2nc(C(=O)O)cs2)cc1-c1ccc(N2CCC2)nc1CN1C(=O)O[C@H](c2cc(C(F)(F)F)cc(C(F)(F)F)c2)[C@@H]1C [Example 115]	6.55
COc1ccc(-c2nc(C)c(C(=O)O)s2)cc1-c1ccc(N2CCC2)nc1CN1C(=O)O[C@H](c2cc(C(F)(F)F)cc(C(F)(F)F)c2)[C@@H]1C [Example 116]	7.11
COc1ccc(-c2ncc(C(=O)O)n2C)cc1-c1ccc(N2CCC2)nc1CN1C(=O)O[C@H](c2cc(C(F)(F)F)cc(C(F)(F)F)c2)[C@@H]1C [Example 117]	7.60
COc1ccc(-c2c(C)cc(C(=O)O)n2C)cc1-c1ccc(N2CCC2)nc1CN1C(=O)O[C@H](c2cc(C(F)(F)F)cc(C(F)(F)F)c2)[C@@H]1C [Example 119]	8.30
